Assay [1] deals with CDK4/Cyclin D1 (Homo sapiens (Human), UniProt P11802). The experiment in a line: CDK4/Cyclin D1 CHEF Assay (AQT0258 peptide). Type of assay: biochemical. As to conditions: 200 uM ATP, read-out: CDK4/ CyclinD1 AQT IC50. The text has this:
CDK4/Cyclin D1 CHEF Assay
The purpose of CDK4/Cyclin D1 assay is to evaluate the inhibition (% inhibition and IC50 values) of small molecule inhibitors by using a Chelation-Enhance Fluorescence (CHEF) assay. In a CHEF assay, phosphorylation of a peptide substrate results in proportional increase in fluorescence. CHEF kinase assay use peptide substrates containing a synthetic alpha-amino acid with a side chain bearing an 8-hydroxyquinoline derivative (sulfonamido-oxide, Sox). Upon phosphorylation of a nearby serine, threonine or tyrosine and in the presence of Mg(II), the spectral properties of the Sox residue are altered, emitting 485 nm wavelength light when excited with a 360 nm wavelength light source. CDK4/Cyclin D1 catalyzes the phosphoryl transfer to the SOX-labeled substrate peptide AQT0258 from Assayquant Technologies. […] The reaction was initiated with the addition of substrate solution, following a 30-minute pre-incubation of enzyme and inhibitor at 22° C. in the reaction mix. Reactions were allowed to proceed for 3 hrs at 22° C., followed by fluorescence read of the reaction. The IC50 determinations were made from a plot of the fractional velocity as a function of inhibitor concentration fit to the 4 parameters IC50 equation.

Assay [2] addresses CDK2/Cyclin E1 (Homo sapiens (Human), UniProt P24941). The experiment in a line: CDK2/Cyclin E1 Full length ADP-Glo Kinase Assay. Type of assay: biochemical. As to conditions: 20 uM ATP, read-out: CDK2/ CyclinE1 IC50. As for the experimental part:
CDK2/Cyclin E1 Full length ADP-Glo Kinase Assay
(§1) The purpose of CDK2/Cyclin E1 assay is to evaluate the inhibition (% inhibition and IC50 values) of small molecule inhibitors by using a Luminescent based ADP-Glo assay. CDK2/Cyclin E1 full length catalyzes the production of ADP from ATP. ADP-Glo assay monitors ADP producing biochemical reactions. ADP-Glo is performed in 2 steps upon completion of kinase reaction: a combined termination of kinase reaction and depletion of remaining ATP in the first step, and conversion of generated ADP to ATP and the newly produced ATP to light output using luciferase/luciferin reaction in the second step. The luminescent signal generated is proportional to the ADP concentration produced and is correlated with the kinase activity. CDK2/Cyclin E1 was purchased from Eurofins (Cat 14-475M). […] The assay was initiated with the addition of ATP-containing substrate solution, following a 30-minute pre-incubation of enzyme and inhibitor at room temperature in the reaction mixture. The reaction was stopped after 90 minutes at room temperature by the addition of 10 uL of ADP-GLO Reagent. After a 90 minute incubation, 20 uL of Kinase Detection Reagent was added. Samples were incubated for 40 minutes, after which plate well luminescence was measured on a Envision microplate reader. The IC50 determinations were made from a plot of the fractional velocity as a function of inhibitor concentration fit to the 4 parameters IC50 equation.

In assay [3] the test system is OVCAR-3 cells. Kind of assay: Cell Growth Inhibition, OVCAR-3 (CellTiterGlo, 6 days). Type of assay: cell-based. The settings on record: Homo sapiens, 144 h, OVCAR-3, 6-day treatment. The text has this:
(§2) MCF-7 and OVCAR-3 cells were used to evaluate the anti-proliferation activity of the CDK inhibitors. MCF-7 (ATCC, HTB-22) cells are epithelial cells from a patient with ER+ metastatic adenocarcinoma. OVCAR-3 (ATCC, HTB-161) cells were derived from malignant ascites of a patient with ovarian cancer and are known to have CCNE1 amplification. Both cell lines were maintained in RPMI media supplemented with 10% fetal bovine serum. For cell growth inhibition assay, CDK inhibitors in DMSO solution were dispensed with either Echo 655 (Beckman Coulter) or Tecan D300e (HP) into 384-well plates (Corning #3765) and the 384-well plates were UV-sterilized prior to the assay. The inhibitors were typically tested in the 10-10,000 nM concentration range with half-log serial dilutions. MCF-7 or OVCAR-3 (500 cells/30 μL/well) were added to each well using Multidrop Combi (ThermoFisher) using standard cassettes. The assay plates with cells were cultured at 37° C., 5% CO2 for 6 days. At the end of the 6-day treatment, 30 μL of CellTiterGlo 2.0 (Promega) was added to each well and the luminescent signal was read using CLARIOstar plus (BMG). The percentage of cell growth inhibition (% CGI) was calculated using the following formula 00 CGI=100-100×luminescencesampie/luminescencecontroi. The half maximal inhibitory concentration (IC50) was determined by nonlinear curve fitting (four parameters, variable slope).
For orientation: Cellular ATP, detected with luciferase, serves as a proxy for viable cell number.

Assay [4] deals with MCF-7 cells. The experiment in a line: Cell Growth Inhibition, MCF-7 (CellTiterGlo, 6 days). The settings on record: Homo sapiens, MCF7, 144 h, MCF-7, 6-day treatment. Type of assay: cell-based.
Excerpt: as §2

Assay [5] addresses CDK1/Cyclin B1 (Homo sapiens (Human), UniProt P06493). Kind of assay: CDK1/Cyclin B1 ADP-Glo Kinase Assay. Type of assay: biochemical. As to conditions: ADP-Glo, 80 uM ATP; read-out: CDK1 Cyclin B1 IC50. The method, then:
CDK1/Cyclin B1 ADP-Glo Kinase Assay
as §1, with “CDK1/Cyclin B1” for “CDK2/Cyclin E1”, “CDK1/Cyclin B1” for “CDK2/Cyclin E1 full length”, “Carna” for “Eurofins”, “04-102).” for “14-475M).”
Background: ADP-Glo first removes unused ATP, then detects ADP through luciferase.

The target in assay [6] is CDK6/Cyclin D3 (Homo sapiens (Human), UniProt Q00534). Kind of assay: CDK6/Cyclin D3 ADP-Glo Kinase Assay. Type of assay: biochemical. As to conditions: 100 uM ATP, read-out: CDK6/ CyclinD3 IC50. The method, then:
CDK6/Cyclin D3 ADP-Glo Kinase Assay
The purpose of the CDK6/Cyclin D3 assay is to evaluate the inhibition (% inhibition and IC50 values) in the presence of small molecule inhibitors by using a Luminescent based ADP-Glo assay. CDK6/Cyclin D3 catalyzes the production of ADP from ATP. ADP-Glo assay monitors ADP producing biochemical reactions. ADP-Glo is performed in 2 steps upon completion of kinase reaction: a combined termination of kinase reaction and depletion of remaining ATP in the first step, and conversion of generated ADP to […] and the newly produced ATP to light output using luciferase/luciferin reaction in the second step. The luminescent signal generated is proportional to the ADP concentration produced and is correlated with the kinase activity CDK6/Cyclin D3 was purchased from Carna. […] The assay was initiated with the addition of ATP-containing substrate solution, following a 30-minute pre-incubation of enzyme and inhibitor at room temperature in the reaction mixture. The reaction was stopped after 90 minutes at room temperature by the addition of 10 uL of ADP-GLO Reagent. After a 90-minute incubation, 20 uL of Kinase Detection Reagent was added. Samples were incubated for 40 minutes, after which plate well luminescence was measured on a Envision microplate reader. The IC50 determinations were made from a plot of the fractional velocity as a function of inhibitor concentration fit to the 4 parameters IC50 equation.

Among the data in US20240034731A1, “AZA-QUINAZOLINE COMPOUNDS AND METHODS OF USE” (Iambic Therapeutics, Inc., priority 2022, published 2024) are IC50 values, retold here.

The structures appear in SMILES notation. Bounds are passed on as bounds.

Chain of CDK1/Cyclin B1 (P06493 whole entry): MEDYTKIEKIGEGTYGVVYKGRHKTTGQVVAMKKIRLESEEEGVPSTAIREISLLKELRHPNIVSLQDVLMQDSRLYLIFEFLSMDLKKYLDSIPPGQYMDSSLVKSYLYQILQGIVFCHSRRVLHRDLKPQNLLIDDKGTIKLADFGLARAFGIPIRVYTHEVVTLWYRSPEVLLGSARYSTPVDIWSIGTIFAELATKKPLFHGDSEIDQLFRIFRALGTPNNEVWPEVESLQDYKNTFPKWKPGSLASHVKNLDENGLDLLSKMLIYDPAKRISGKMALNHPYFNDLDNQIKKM
Chain of CDK1/Cyclin B1 (P14635 whole entry partner): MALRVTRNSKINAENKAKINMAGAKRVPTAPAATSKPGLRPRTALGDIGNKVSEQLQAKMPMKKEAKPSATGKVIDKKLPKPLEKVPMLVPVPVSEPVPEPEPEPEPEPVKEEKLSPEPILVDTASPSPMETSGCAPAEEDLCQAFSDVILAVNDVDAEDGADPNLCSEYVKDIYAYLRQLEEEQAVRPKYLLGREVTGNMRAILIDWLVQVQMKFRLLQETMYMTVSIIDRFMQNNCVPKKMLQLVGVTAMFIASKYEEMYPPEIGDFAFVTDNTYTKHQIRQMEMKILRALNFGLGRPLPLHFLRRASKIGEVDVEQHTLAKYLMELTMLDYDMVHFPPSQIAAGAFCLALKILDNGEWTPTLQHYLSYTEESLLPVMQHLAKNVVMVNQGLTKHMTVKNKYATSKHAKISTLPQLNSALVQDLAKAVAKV
Chain of CDK6/Cyclin D3 (Q00534 whole entry): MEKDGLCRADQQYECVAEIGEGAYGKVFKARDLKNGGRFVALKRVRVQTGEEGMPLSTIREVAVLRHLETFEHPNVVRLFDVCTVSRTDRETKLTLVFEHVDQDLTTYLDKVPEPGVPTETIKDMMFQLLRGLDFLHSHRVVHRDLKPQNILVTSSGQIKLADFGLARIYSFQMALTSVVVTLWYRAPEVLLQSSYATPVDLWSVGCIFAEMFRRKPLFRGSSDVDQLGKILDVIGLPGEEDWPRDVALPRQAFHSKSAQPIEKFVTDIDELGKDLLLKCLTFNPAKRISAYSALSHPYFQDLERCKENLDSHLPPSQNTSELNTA
Chain of CDK6/Cyclin D3 (P30281 whole entry partner): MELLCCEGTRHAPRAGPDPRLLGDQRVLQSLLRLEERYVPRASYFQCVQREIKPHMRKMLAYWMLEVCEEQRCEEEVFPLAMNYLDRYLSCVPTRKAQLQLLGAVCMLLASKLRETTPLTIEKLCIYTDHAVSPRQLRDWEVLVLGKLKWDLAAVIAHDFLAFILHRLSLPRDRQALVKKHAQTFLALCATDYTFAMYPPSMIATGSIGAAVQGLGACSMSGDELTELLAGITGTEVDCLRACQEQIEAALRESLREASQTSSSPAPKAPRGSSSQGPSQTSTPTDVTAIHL
Chain of CDK4/Cyclin D1 (P11802 whole entry): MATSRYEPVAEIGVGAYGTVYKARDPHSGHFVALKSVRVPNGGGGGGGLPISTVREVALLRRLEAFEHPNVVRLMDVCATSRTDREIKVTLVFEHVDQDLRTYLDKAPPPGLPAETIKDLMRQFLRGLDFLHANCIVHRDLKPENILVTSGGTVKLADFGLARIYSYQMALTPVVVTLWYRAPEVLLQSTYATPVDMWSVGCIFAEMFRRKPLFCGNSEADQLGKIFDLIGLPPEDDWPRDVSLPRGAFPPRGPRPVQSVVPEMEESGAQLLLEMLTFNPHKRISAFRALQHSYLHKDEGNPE
Chain of CDK4/Cyclin D1 (P24385 whole entry partner): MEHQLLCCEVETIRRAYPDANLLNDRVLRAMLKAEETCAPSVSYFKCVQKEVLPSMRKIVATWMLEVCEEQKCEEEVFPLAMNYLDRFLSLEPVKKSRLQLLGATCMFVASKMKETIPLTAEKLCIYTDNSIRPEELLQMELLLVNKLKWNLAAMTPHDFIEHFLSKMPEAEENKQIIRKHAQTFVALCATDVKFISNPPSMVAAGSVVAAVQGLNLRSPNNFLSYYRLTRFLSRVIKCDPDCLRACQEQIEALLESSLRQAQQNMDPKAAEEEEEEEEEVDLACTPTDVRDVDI

Turning to `Cc1cc2cnc(NC3CCN(S(C)(=O)=O)CC3)nc2c(C2CC3(C2)CN(C)CCO3)n1` (stereo not shown) [Compound 84, 6-methyl-8-(8-methyl-5-oxa-8-azaspiro[3.5]nonan-2-yl)-N-(1-(methylsulfonyl)piperidin-4-yl)pyrido[3,4-d]pyrimidin-2-amine], the IC50 in assay [1] is less than 200 nM; in assay [2], less than 200 nM; in assay [3] it was 500 to 2000 nM; in assay [4], 500 to 2000 nM; in assay [5], 200 to 500 nM; in assay [6] it was less than 200 nM.

For `Cc1cc2cnc(NC3CCN(S(C)(=O)=O)CC3)nc2c(N2CC(O)(C(F)F)C2)n1` [Compound 91, 3-(difluoromethyl)-1-(6-methyl-2-((1-(methylsulfonyl)piperidin-4-yl)amino)pyrido[3,4-d]pyrimidin-8-yl)azetidin-3-ol], the IC50 is less than 200 nM in assay [1]; less than 200 nM in assay [2]; 200 to 500 nM in assay [3]; 500 to 2000 nM in assay [4]; less than 200 nM in assay [5]; less than 200 nM in assay [6].

`Cc1cc2cnc(Nc3ccc4c(c3)CN(C)C4)nc2c(N2CC3(C2)CN(C2CC2)C3)n1` [Compound 44, 8-(6-cyclopropyl-2,6-diazaspiro[3.3]heptan-2-yl)-6-methyl-N-(2-methylisoindolin-5-yl)pyrido[3,4-d]pyrimidin-2-amine]: the IC50 in assay [1] was 200 to 500 nM; in assay [2] it was greater than 2000 nM; in assay [3] it was greater than 2000 nM; in assay [4] it was greater than 2000 nM; in assay [5] it was greater than 2000 nM; in assay [6], 500 to 2000 nM.

As to `COC1CC2(C1)CN(c1nc(C)cc3cnc(NC4CCN(S(=O)(=O)C5CC5)CC4)nc13)C2` [Compound 71, N-(1-(cyclopropylsulfonyl)piperidin-4-yl)-8-(6-methoxy-2-azaspiro[3.3]heptan-2-yl)-6-methylpyrido[3,4-d]pyrimidin-2-amine], the IC50 in assay [1] is less than 200 nM; in assay [2], less than 200 nM; in assay [3], greater than 2000 nM; in assay [4] it was greater than 2000 nM; in assay [5], 200 to 500 nM; in assay [6], less than 200 nM.

As for `[2H]C([2H])([2H])N1CC2(CN(c3nc(C)cc4cnc(NC5CCN(S(C)(=O)=O)CC5)nc34)CC2(F)F)C1` [Example 12, 8-(8,8-difluoro-2-(methyl-d3)-2,6-diazaspiro[3.4]octan-6-yl)-6-methyl-N-(1-(methylsulfonyl)piperidin-4-yl)pyrido [3,4-d]pyrimidin-2-amine], the IC50 in assay [1], in assay [2], in assay [5] and in assay [6] was less than 200 nM throughout.

Regarding `Cc1cc2cnc(NC3CCN(S(C)(=O)=O)CC3)nc2c(N2CC3(CCC(=O)NC3)C2)n1` [Compound 82, 2-(6-methyl-2-((1-(methylsulfonyl)piperidin-4-yl)amino)pyrido[3,4-d]pyrimidin-8-yl)-2,6-diazaspiro[3.5]nonan-7-one], the IC50 in assay [1] is 200 to 500 nM; in assay [2] it was less than 200 nM; in assay [5], 200 to 500 nM; in assay [6], 200 to 500 nM.

Regarding `Cc1cc2cnc(NC3CCN(S(C)(=O)=O)CC3)nc2c(N2CC3(CNCC3C(F)F)C2)n1` (stereo not shown) [Compound 100, 8-(8-(difluoromethyl)-2,6-diazaspiro[3.4]octan-2-yl)-6-methyl-N-(1-(methylsulfonyl)piperidin-4-yl)pyrido[3,4-d]pyrimidin-2-amine], the IC50 in assay [1], in assay [2], in assay [5] and in assay [6] was less than 200 nM throughout.

With `Cc1cc2cnc(NC3CCN(S(=O)(=O)C4CC4)CC3)nc2c(N2CC(F)(F)C3(CN(C)C3)C2)n1` [Compound 102, N-(1-(cyclopropylsulfonyl)piperidin-4-yl)-8-(8,8-difluoro-2-methyl-2,6-diazaspiro[3.4]octan-6-yl)-6-methylpyrido[3,4-d]pyrimidin-2-amine], the IC50 in assay [1], in assay [2], in assay [5] and in assay [6] was less than 200 nM throughout.

On to `[2H]C([2H])([2H])N1CC2(CN(c3nc(C)cc4cnc(NC5CCN(S(=O)(=O)C6CC6)CC5)nc34)CC2(F)F)C1` [Compound 13, N-(1-(cyclopropylsulfonyl)piperidin-4-yl)-8-(8,8-difluoro-2-(methyl-d3)-2,6-diazaspiro[3.4]octan-6-yl)-6-methylpyrido[3,4-d]pyrimidin-2-amine], for which the IC50 in assay [1], in assay [2], in assay [5] and in assay [6] was less than 200 nM throughout.

Consider `O=S(=O)(C1CC1)N1CCC(Nc2ncc3cc(C(F)F)nc(N4CC5(CCNC5)C4)c3n2)CC1` [Example 46], for which the IC50 is less than 200 nM in assay [1]; 500 to 2000 nM in assay [3]; 500 to 2000 nM in assay [4]; less than 200 nM in assay [5]; less than 200 nM in assay [6].
